The source made the active and inactive calls. The rule behind the calls is not given here. Some results are limits rather than exact numbers.

One series deals with Phosphodiesterase 4 (Homo sapiens, UniProt P27815+Q08499+Q07343+Q08493). The series is described as follows: Inhibition of human PDE4 after 30 mins. In kind it is protein assay.
Series [1] in a line: Cytotoxicity against rat L6E9 myoblasts at 1 to 25 uM.
In the next series the test system is Trypanosoma cruzi. Briefly: Antimicrobial activity against Trypanosoma cruzi Y infected in rat L6E9 myoblasts assessed as inhibition of [5,6-3H]uracil incorporation after 3 days postinfection by scintillation counter. The class given is functional, organism-based.
Series [2] has as its target T1, Cyclic nucleotide specific phosphodiesterase (Trypanosoma cruzi, UniProt Q53I59).
T1 sequence (Q53I59 whole entry): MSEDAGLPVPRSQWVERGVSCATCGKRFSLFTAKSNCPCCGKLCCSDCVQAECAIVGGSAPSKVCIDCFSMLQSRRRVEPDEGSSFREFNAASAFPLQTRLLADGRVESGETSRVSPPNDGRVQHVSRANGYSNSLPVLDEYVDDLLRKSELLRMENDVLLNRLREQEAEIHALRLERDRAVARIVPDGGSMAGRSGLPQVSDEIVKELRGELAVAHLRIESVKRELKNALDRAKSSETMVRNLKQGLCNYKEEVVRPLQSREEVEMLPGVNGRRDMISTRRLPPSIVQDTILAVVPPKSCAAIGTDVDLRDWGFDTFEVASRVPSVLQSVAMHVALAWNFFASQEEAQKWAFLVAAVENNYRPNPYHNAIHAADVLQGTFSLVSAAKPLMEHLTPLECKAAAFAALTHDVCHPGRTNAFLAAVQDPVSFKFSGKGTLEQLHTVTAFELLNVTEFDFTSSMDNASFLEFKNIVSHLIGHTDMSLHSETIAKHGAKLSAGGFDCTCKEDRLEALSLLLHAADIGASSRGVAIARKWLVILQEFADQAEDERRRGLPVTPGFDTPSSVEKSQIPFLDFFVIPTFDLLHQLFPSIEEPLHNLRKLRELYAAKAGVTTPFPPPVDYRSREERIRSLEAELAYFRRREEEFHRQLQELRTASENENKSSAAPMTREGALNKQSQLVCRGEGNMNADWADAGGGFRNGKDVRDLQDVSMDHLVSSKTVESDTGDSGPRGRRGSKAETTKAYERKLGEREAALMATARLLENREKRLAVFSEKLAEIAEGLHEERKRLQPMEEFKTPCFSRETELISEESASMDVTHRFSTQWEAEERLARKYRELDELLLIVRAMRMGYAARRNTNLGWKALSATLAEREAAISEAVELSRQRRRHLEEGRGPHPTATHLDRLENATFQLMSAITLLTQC
Briefly: Inhibition of Trypanosoma cruzi Y PDEC after 30 mins.

Series [3] has as its target T2, Cyclic nucleotide specific phosphodiesterase (Trypanosoma cruzi) (UniProt Q53I59).
T2 sequence (whole entry): T1 sequence (Q53I59 whole entry)
Briefly: Inhibition of Trypanosoma cruzi Y PDEC assessed as cAMP accumulation at 26 uM after 1 to 5 mins by luminescence spectrophotometry. For orientation: Cyclic AMP is a second messenger, typically raised through Gs and lowered through Gi signalling.

Series [4] addresses T2, Cyclic nucleotide specific phosphodiesterase (Trypanosoma cruzi). The series is described as follows: Inhibition of Trypanosoma cruzi Y PDEC assessed as cAMP accumulation at 90 uM after 1 to 5 mins by luminescence spectrophotometry.
Series [5] has the same target. Briefly: Inhibition of Trypanosoma cruzi Y PDEC assessed as cAMP accumulation at 43 uM after 1 to 5 mins by luminescence spectrophotometry.
The target is the same in series [6]. Briefly: Inhibition of Trypanosoma cruzi Y PDEC assessed as cAMP accumulation at 4.5 to 45 uM after 1 to 5 mins by luminescence spectrophotometry.

With `CCCC(=O)c1ccc(OC(F)F)c(Oc2ccccn2)c1`, the IC50 on Phosphodiesterase 4 was 40 µM; in the series on Trypanosoma cruzi it was 10.3 µM; in series [2], 3.5 µM. Moreover, the Activity result in series [1] was “Non-toxic”.
For the compound `CCCC(=O)c1ccc(OC)c(OC2CCOC2)c1` (stereo not given), the results for the IC50 (against Phosphodiesterase 4; in the series with Trypanosoma cruzi; in series [2]) were 0.43 µM, 68 µM and above 10 µM, respectively. Besides, the Activity entry in series [1] is “Non-toxic”.
The like results for `CC(C)CC(=O)c1ccc(OC(F)F)c(OC2CCCC2)c1` were, in that order, 0.022 µM, 3.6 µM, 3.2 µM and “Non-toxic”.
For the compound `CCCC(=O)c1ccc(OC(F)F)c(OC2CCOCC2)c1`, the inhibition result in series [3], in series [4], in series [5] and in series [6] was “Active” throughout. In addition, the half-maximal inhibitory concentration (IC50) on Phosphodiesterase 4 came to 0.35 µM; with Trypanosoma cruzi, 1.6 µM; in series [2], 4.8 µM. In addition, in series [1], the Activity entry is reported as “Non-toxic”.
Regarding `O=C(CCCc1ccccc1)c1ccc(OC(F)F)c(OC(F)F)c1`, the results for the IC50 (on Phosphodiesterase 4; in the series on Trypanosoma cruzi; in series [2]) were 44 µM, 7.7 µM and 2.5 µM, respectively. For the same compound, the Activity entry in series [1] was “Non-toxic”.
`CCCC(=O)c1ccc(OC2CCOC2)c(OC)c1` (stereo not given): the half-inhibitory concentration (IC50) on Phosphodiesterase 4 worked out at 24 µM; with Trypanosoma cruzi, 3.7 µM; in series [2] it was 5.6 µM. For the same compound, in series [1], the Activity entry is given as “Non-toxic”.
For the compound `COc1ccc(C(=O)CCC2CCCCC2)cc1OC1CCOC1` (stereo not given), the IC50 at Phosphodiesterase 4 was 1.9 µM; in the series with Trypanosoma cruzi, 6.1 µM; in series [2], above 10 µM. Also, the Activity result in series [1] is on record as “Non-toxic”.
In the case of `O=C(CC1CCCCC1)c1ccc(OC(F)F)c(OC2CCOC2)c1` (stereo not given), the half-inhibitory concentration (IC50) at Phosphodiesterase 4 worked out at 0.667 µM; with Trypanosoma cruzi, 4.4 µM; in series [2], 2.5 µM. Moreover, the Activity entry in series [1] is given as “Non-toxic”.
Turning to `CCCCC(=O)c1ccc(OC2CCN(C(=O)OC(C)(C)C)CC2)c(OC)c1`, the IC50 worked out at 93 µM on Phosphodiesterase 4, 3.8 µM in the series on Trypanosoma cruzi and 3.1 µM in series [2]. Moreover, the Activity result in series [1] is recorded as “Non-toxic”.
As to `O=C(NCc1csc(-c2cccs2)n1)C1=Cc2ccccc2OC1` [SCR 01311], in series [1], the Activity entry is on record as “Non-toxic”. Also, the IC50 in the series on Trypanosoma cruzi came to 25 µM; in series [2], 10 µM.
For `CCCC(O)c1ccc(OC)c(OC2CCOCC2)c1` (stereo not given), the half-maximal inhibitory concentration (IC50) on Phosphodiesterase 4 is 100 µM; in the series on Trypanosoma cruzi it was 10 µM; in series [2], above 10 µM. Further, the Activity result in series [1] was “Non-toxic”.
Regarding `CCOC(=O)c1nc(C)nc(Sc2nnc(-c3ccccc3)[nH]2)c1C`, in series [1], the Activity entry is “Non-toxic”. Also, the IC50 in the series on Trypanosoma cruzi was 6.4 µM; in series [2], 4.6 µM.
Turning to `CCCC(c1ccc(Oc2ccccn2)c(OC)c1)c1cnc2ccccc2c1` (stereo not given), the 50% inhibitory concentration (IC50) is 6 µM on Phosphodiesterase 4, 1.9 µM in the series on Trypanosoma cruzi and 3.3 µM in series [2]. The Activity entry in series [1] was “Non-toxic”.
Turning to `CCCC(O)c1ccc(OC)c(OC2CCOC2)c1` (stereo not given), the 50% inhibitory concentration (IC50) on Phosphodiesterase 4 was 100 µM; in the series with Trypanosoma cruzi, 471 µM; in series [2], above 10 µM. For the same compound, the Activity entry in series [1] is “Non-toxic”.
On to `O=C1c2ccccc2S(=O)(=O)N1Cc1nc2ccccc2s1`, for which the Activity result in series [1] is “Non-toxic”. For the same compound, the values for the IC50 (with Trypanosoma cruzi; in series [2]) were 3.3 µM and 5.5 µM, respectively.
Turning to `C=CCn1c(=S)sc2c(Sc3nnc(-c4ccco4)o3)ncnc21`, the Activity entry in series [1] is “Non-toxic”. The half-inhibitory concentration (IC50) was determined as 5.4 µM with Trypanosoma cruzi and 7 µM in series [2].
`O=C(CC1CCCCC1)c1ccc(OC(F)F)c(OC(F)F)c1`: the figures for the IC50 (against Phosphodiesterase 4; with Trypanosoma cruzi; in series [2]) were 5.2 µM, 5.7 µM and 5.4 µM, respectively. Also, the Activity result in series [1] is recorded as “Non-toxic”.
With `CCCC(O)(C(=O)c1ccc(OC(F)F)c(Oc2ccccn2)c1)c1cnc2ccccc2c1` (stereo not given), the IC50 against Phosphodiesterase 4 was 6 µM; with Trypanosoma cruzi, 3.8 µM; in series [2], 3.9 µM. In addition, in series [1], the Activity result was “Non-toxic”.
Regarding `O=C(CN1CCc2ccccc21)Nc1nnc(-c2cccs2)s1`, the Activity entry in series [1] was “Non-toxic”. The IC50 (in the series with Trypanosoma cruzi; in series [2]) was above 10 µM throughout.
With `CC(C)(C)c1cc2ncnc(NNC(=O)c3cccs3)c2s1` [GK03671], the Activity entry in series [1] is on record as “Non-toxic”. Moreover, the concentration for half-maximal inhibition (IC50) in the series on Trypanosoma cruzi was found to be 4.8 µM; in series [2], 6.3 µM.
The like results for `NNC(=O)c1csc(COc2ccc(C3SCCS3)cc2)n1` were, in that order, “Non-toxic”, above 10 µM and above 10 µM.
On to `O=Cc1ccc(OC(F)F)c(O)c1`, for which the Activity entry in series [1] is recorded as “Non-toxic”. In addition, the figures for the IC50 (in the series on Trypanosoma cruzi; in series [2]) were 11 µM and above 10 µM, respectively.
The like results for `O=S(=O)(Cc1ccco1)Cc1nc(-c2ccccc2)cs1` were, in that order, “Non-toxic”, 25 µM and 3.8 µM.
As to `CCCC(=O)c1ccc(OC2CCOCC2)c(OC)c1`, the results for the half-maximal inhibitory concentration (IC50) (on Phosphodiesterase 4; with Trypanosoma cruzi; in series [2]) were 60 µM, 4 µM and 4 µM, respectively. The Activity entry in series [1] is on record as “Non-toxic”.
For `O=C(SCc1ccco1)c1csc(C2COc3ccccc3O2)n1` (stereo not given), the Activity entry in series [1] is listed as “Non-toxic”. Besides, the IC50 was 25 µM in the series with Trypanosoma cruzi and above 10 µM in series [2].
For the compound `COC(OC)c1ccc(C#N)c(SCC(=O)c2ccc(Cl)cc2)n1`, the Activity result in series [1] was “Non-toxic”. Moreover, the half-inhibitory concentration (IC50) (in the series with Trypanosoma cruzi; in series [2]) was above 10 µM throughout.
With `O=C1CC(Sc2ccc(Cl)cc2)C(=O)N1Cc1ccncc1` (stereo not given), the Activity result in series [1] was “Non-toxic”. Besides, the IC50 in the series with Trypanosoma cruzi was above 10 µM; in series [2] it was 10 µM.
Regarding `O=C(CCC1CCCCC1)c1ccc(OC(F)F)c(OC2CCOC2)c1` (stereo not given), the 50% inhibitory concentration (IC50) on Phosphodiesterase 4 was 1.1 µM; with Trypanosoma cruzi it was 5.8 µM; in series [2] it was 5.3 µM. The Activity result in series [1] is “Non-toxic”.
For the compound `O=C(COc1ncnc2cc(Cl)ccc12)Nc1ccccc1Cl`, in series [1], the Activity entry is on record as “Non-toxic”. Moreover, the IC50 (in the series on Trypanosoma cruzi; in series [2]) was above 10 µM in each case.
In the case of `O=C(CCc1ccccc1)c1ccc(OC(F)F)c(OC2CCOC2)c1` (stereo not given), the IC50 on Phosphodiesterase 4 worked out at 0.18 µM; in the series with Trypanosoma cruzi it was 3.1 µM; in series [2], 2.5 µM. In addition, in series [1], the Activity result is given as “Non-toxic”.
Take `COc1ccc(C(=O)CCc2ccccc2)cc1OC1CCOC1` (stereo not given): the IC50 against Phosphodiesterase 4 was 2.3 µM; in the series with Trypanosoma cruzi, 5.6 µM; in series [2], above 10 µM. Also, the Activity result in series [1] is recorded as “Non-toxic”.
As to `CCCCC(=O)c1ccc(OC)c(OC2CCOCC2)c1`, the 50% inhibitory concentration (IC50) against Phosphodiesterase 4 was 0.72 µM; in the series on Trypanosoma cruzi, 2.1 µM; in series [2], above 10 µM. Besides, in series [1], the Activity entry is “Non-toxic”.
As to `COc1ccc(C=O)cc1OC1CCOC1` (stereo not given), the Activity entry in series [1] is listed as “Non-toxic”. The 50% inhibitory concentration (IC50) was 122 µM with Trypanosoma cruzi and above 10 µM in series [2].
The like results for `O=S(=O)(Cc1noc(-c2cccs2)n1)c1ccc(F)cc1` were, in that order, “Non-toxic”, above 10 µM and above 10 µM.
In the case of `Fc1ccccc1Nc1ncnc2c1nnn2Cc1ccccc1`, the Activity entry in series [1] was “Non-toxic”. In addition, the IC50 (with Trypanosoma cruzi; in series [2]) was above 10 µM each time.
Consider `COc1ccc(C(=O)CC2CCCCC2)cc1OC1CCOC1` (stereo not given), for which the IC50 at Phosphodiesterase 4 was found to be 2.6 µM; with Trypanosoma cruzi it was 1.7 µM; in series [2], 4.9 µM. In addition, the Activity entry in series [1] was “Non-toxic”.
Take `O=C(CCCc1ccccc1)c1ccc(OC(F)F)c(OC2CCOC2)c1` (stereo not given): the IC50 stood at 0.626 µM at Phosphodiesterase 4, 3.1 µM with Trypanosoma cruzi and 3.2 µM in series [2]. Moreover, the Activity result in series [1] was “Non-toxic”.
Turning to `O=C(CCc1ccccc1)c1ccc(OC(F)F)c(OC(F)F)c1`, the concentration for half-maximal inhibition (IC50) at Phosphodiesterase 4 stood at 0.082 µM; in the series with Trypanosoma cruzi, 2.3 µM; in series [2] it was 2.2 µM. Also, the Activity result in series [1] is reported as “Non-toxic”.

As a reminder, the IC50 is the point on the concentration scale where inhibition reaches its midpoint.

These data come from ChEMBL document CHEMBL1671721, “Chemical validation of phosphodiesterase C as a chemotherapeutic target in Trypanosoma cruzi, the etiological agent of Chagas' disease” (Antimicrob Agents Chemother, 2010).
